From patent US6358885B1, “Substituted phenylheterocyclic herbicides” (Mississippi State University, priority 1992, dated 2002)

Columns and labels:
purple nutsedge = experiment: Test B preemergence/postemergence greenhouse plant response rating 0 to 10; format: in vivo, Cyperus rotundus; settings: Rate 50 g/ha, 0 to 10 scale
In short: (§1)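 Postemergence treatment of plants two to eighteen cm tall ran alongside preemergence treatment of planted seed, each using compound in a non-phytotoxic solvent.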

rice [1] = experiment: as above; format: in vivo, Oryza sativa; settings: 0 to 10 scale
In short: as §1

barnyardgrass = experiment: Test C flood test plant response rating 0 to 100; format: in vivo, Echinochloa crus-galli
In short: (§2)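 Compounds in non-phytotoxic solvent applied preemergence to sandy loam one day after planting, postemergence at the 1–4 leaf stage, or to ~2.5 cm floodwater over silt loam.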

umbrella sedge = experiment: Test C flood test plant response rating 0 to 100; format: in vivo, Cyperus difformis
In short: as §2

corn = experiment: Test C preemergence/postemergence greenhouse plant response rating 0 to 100; format: in vivo, Zea mays; settings: POSTEMERGENCE
In short: as §2

cocklebur = experiment: Test B preemergence/postemergence greenhouse plant response rating 0 to 10; format: in vivo, Xanthium pensylvanicum; settings: 0 to 10 scale
In short: as §1

lambsquarters = experiment: as above; format: in vivo, Chenopodium album; settings: 0 to 10 scale
In short: as §1

crabgrass = experiment: as above; format: in vivo, Digitaria spp.; settings: 0 to 10 scale
In short: as §1

barley = experiment: as above; format: in vivo, Hordeum vulgare; settings: 0 to 10 scale
In short: as §1

bedstraw = experiment: as above; format: in vivo, Galium aparine; settings: POSTEMERGENCE, 0 to 10 scale
In short: as §1

sugar beet = experiment: as above; format: in vivo, Beta vulgaris; settings: 0 to 10 scale
In short: as §1

sorghum = experiment: Test C preemergence/postemergence greenhouse plant response rating 0 to 100; format: in vivo, Sorghum bicolor; settings: POSTEMERGENCE
In short: as §2

morningglory = experiment: as above; format: in vivo, Ipomoea hederacea; settings: POSTEMERGENCE
In short: as §2

rape = experiment: Test B preemergence/postemergence greenhouse plant response rating 0 to 10; format: in vivo, Brassica napus; settings: 0 to 10 scale
In short: as §1

pigweed = experiment: Test C preemergence/postemergence greenhouse plant response rating 0 to 100; format: in vivo, Amaranthusretroflexus; settings: POSTEMERGENCE
In short: as §2

blackgrass = experiment: Test B preemergence/postemergence greenhouse plant response rating 0 to 10; format: in vivo, Alopecurus myosuroides; settings: 0 to 10 scale
In short: as §1

rice [2] = experiment: Test C flood test plant response rating 0 to 100; format: in vivo, Oryza sativa
In short: as §2

soybean = experiment: Test B preemergence/postemergence greenhouse plant response rating 0 to 10; format: in vivo, Glycine max; settings: 0 to 10 scale
In short: as §1

[3] = POSTEMERGENCE section, flood test, Rate 1 g/ha
[4] = Rate 16 g/ha, under POSTEMERGENCE head (flood test species)
[5] = flood test species listed under POSTEMERGENCE, 62 g/ha, 0 to 100 scale
[6] = POSTEMERGENCE section, flood test, Rate 4 g/ha

Structure (SMILES): C#CCN1C(=O)COc2cc(F)c(-c3nn4c(c3Cl)CCCC4)cc21 [Compound 34]
- Plant response rating, Nutsedge (purple nutsedge; POSTEMERGENCE): 0
- Plant response rating, Nutsedge (purple nutsedge; PREEMERGENCE): 0
- Plant response rating, Rice (rice [1]; POSTEMERGENCE, Rate 10 g/ha): 5
- Plant response rating, Rice (rice [1]; POSTEMERGENCE, Rate 50 g/ha): 5
- Plant response rating, Rice (rice [1]; PREEMERGENCE, Rate 50 g/ha): 2
- Plant response rating (0 to 100), Barnyardgrass (barnyardgrass; [3]): 60
- Plant response rating (0 to 100), Barnyardgrass (barnyardgrass; Rate 4 g/ha, under POSTEMERGENCE head (flood test species)): 75
- Plant response rating (0 to 100), Barnyardgrass (barnyardgrass; [4]): 95
- Plant response rating, Barnyardgrass (barnyardgrass; [5]): 100
- Plant response rating (0 to 100), Umbrella sedge (umbrella sedge; [3]): 0
- Plant response rating (0 to 100), Umbrella sedge (umbrella sedge; [6]): 0
- Plant response rating (0 to 100), Umbrella sedge (umbrella sedge; [4]): 60
- Plant response rating Umbrella sedge (umbrella sedge; [5]): 80
- Plant response rating, Corn (corn; 62 g/ha, 0 to 100 scale): 50
- Plant response rating (0 to 100), Corn (corn; Rate 1 g/ha): 20
- Plant response rating (0 to 100), Corn (corn; Rate 4 g/ha): 30
- Plant response rating (0 to 100), Corn (corn; Rate 16 g/ha): 40
- Plant response rating, Cocklebur (cocklebur; POSTEMERGENCE, Rate 10 g/ha): 10
- Plant response rating, Cocklebur (cocklebur; POSTEMERGENCE, Rate 50 g/ha): 1
- Plant response rating, Cocklebur (cocklebur; PREEMERGENCE, Rate 10 g/ha): 0
- Plant response rating, Cocklebur (cocklebur; PREEMERGENCE, Rate 50 g/ha): 2
- Plant response rating, Lambsquarter (lambsquarters; POSTEMERGENCE, Rate 10 g/ha): 9
- Plant response rating, Lambsquarter (lambsquarters; POSTEMERGENCE, Rate 50 g/ha): 10
- Plant response rating, Lambsquarter (lambsquarters; PREEMERGENCE, Rate 50 g/ha): 10
- Plant response rating, Crabgrass (crabgrass; POSTEMERGENCE, Rate 10 g/ha): 3
- Plant response rating, Crabgrass (crabgrass; POSTEMERGENCE, Rate 50 g/ha): 4
- Plant response rating, Crabgrass (crabgrass; PREEMERGENCE, Rate 10 g/ha): 3
- Plant response rating, Crabgrass (crabgrass; PREEMERGENCE, Rate 50 g/ha): 9
- Plant response rating, Barley (barley; POSTEMERGENCE, Rate 10 g/ha): 4
- Plant response rating, Barley (barley; POSTEMERGENCE, Rate 50 g/ha): 4
- Plant response rating, Barley (barley; PREEMERGENCE, Rate 10 g/ha): 0
- Plant response rating, Barley (barley; PREEMERGENCE, Rate 50 g/ha): 2
- Plant response rating, Bedstraw (bedstraw; Rate 10 g/ha): 10
- Plant response rating, Bedstraw (bedstraw; Rate 50 g/ha): 10
- Plant response rating, Sugar beet (sugar beet; POSTEMERGENCE, Rate 10 g/ha): 10
- Plant response rating, Sugar beet (sugar beet; POSTEMERGENCE, Rate 50 g/ha): 10
- Plant response rating, Sugar beet (sugar beet; PREEMERGENCE, Rate 50 g/ha): 9
- Plant response rating, Sorghum (sorghum; 62 g/ha, 0 to 100 scale): 70
- Plant response rating (0 to 100), Sorghum (sorghum; Rate 1 g/ha): 30
- Plant response rating (0 to 100), Sorghum (sorghum; Rate 4 g/ha): 40
- Plant response rating (0 to 100), Sorghum (sorghum; Rate 16 g/ha): 50
- Plant response rating, Morningglory (morningglory; 62 g/ha, 0 to 100 scale): 100
- Plant response rating (0 to 100), Morningglory (morningglory; Rate 1 g/ha): 60
- Plant response rating (0 to 100), Morningglory (morningglory; Rate 4 g/ha): 100
- Plant response rating (0 to 100), Morningglory (morningglory; Rate 16 g/ha): 100
- Plant response rating, Rape (rape; POSTEMERGENCE, Rate 10 g/ha): 10
- Plant response rating, Rape (rape; POSTEMERGENCE, Rate 50 g/ha): 10
- Plant response rating, Rape (rape; PREEMERGENCE, Rate 50 g/ha): 6
- Plant response rating Pigweed (pigweed; 62 g/ha, 0 to 100 scale): 100
- Plant response rating (0 to 100), Pigweed (pigweed; Rate 1 g/ha): 90
- Plant response rating (0 to 100), Pigweed (pigweed; Rate 4 g/ha): 100
- Plant response rating (0 to 100), Pigweed (pigweed; Rate 16 g/ha): 100
- Plant response rating, Blackgrass (blackgrass; POSTEMERGENCE, Rate 10 g/ha): 4
- Plant response rating, Blackgrass (blackgrass; POSTEMERGENCE, Rate 50 g/ha): 6
- Plant response rating, Blackgrass (blackgrass; PREEMERGENCE, Rate 10 g/ha): 4
- Plant response rating, Blackgrass (blackgrass; PREEMERGENCE, Rate 50 g/ha): 6
- Plant response rating (0 to 100), Rice Japonica (rice [2]; [3]): 20
- Plant response rating (0 to 100), Rice Japonica (rice [2]; [6]): 25
- Plant response rating (0 to 100), Rice Japonica (rice [2]; [4]): 35
- Plant response rating Rice Japonica (rice [2]; [5]): 90
- Plant response rating, Soybean (soybean; POSTEMERGENCE, Rate 10 g/ha): 8
- Plant response rating, Soybean (soybean; POSTEMERGENCE, Rate 50 g/ha): 10
- Plant response rating, Soybean (soybean; PREEMERGENCE, Rate 50 g/ha): 6
